We go through 25 compounds from paper PMC6305410, “High-Throughput Screening for Bacterial Glycosyltransferase Inhibitors” (Frontiers in Cellular and Infection Microbiology, 2018).

Each structure is given as a SMILES string.

The test addresses T1, NleB1 (Escherichia coli, UniProt Q8XBX8).
T1 construct: GST-EHEC-NleB1 in pET42a (GST/His tagged), expressed in E. coli BL21 (DE3), nickel purified; some tag cleavage noted
To be noted: inhibitor; for % NleB1 inhibition (µM compound) / 10: 10 µM; for % NleB1 inhibition (µM compound) / 20: 20 µM; for % NleB1 inhibition (µM compound) / 40: 40 µM; for % NleB1 inhibition (µM compound) / 80: 80 µM; for % NleB1 inhibition (µM compound) / 160: 160 µM.

On to `CC(=O)Nc1ccc(OCc2cn(CC(=O)c3ccc(O)cc3)nn2)cc1` [KUC104101N], for which the “% NleB1 inhibition (µM compound) / 10” value is recorded as 48.1%, the “% NleB1 inhibition (µM compound) / 20” value worked out at 59.3%, the “% NleB1 inhibition (µM compound) / 40” value was 74.6% and the “% NleB1 inhibition (µM compound) / 80” value is recorded as 91.3%. Moreover, the “% NleB1 inhibition (µM compound) / 160” value was 98.1%.
The corresponding values for `CCC(=O)c1ccc(OCc2cn(CC(=O)c3ccc(O)cc3)nn2)cc1` [KUC104108N] are 21.0%, 35.3%, 49.4%, 67.7% and 88.0%.
As for `COc1ccc(OCc2cn(CC(=O)c3ccc(O)cc3)nn2)cc1` [KUC104109N], the “% NleB1 inhibition (µM compound) / 10” value is reported as 35.4%, the “% NleB1 inhibition (µM compound) / 20” value turned out to be 43.6%, the “% NleB1 inhibition (µM compound) / 40” value stood at 53.9% and the “% NleB1 inhibition (µM compound) / 80” value is recorded as 67.3%. Also, the “% NleB1 inhibition (µM compound) / 160” value turned out to be 82.9%.
Consider `O=Cc1cccc(OCc2cn(CC(=O)c3ccc(O)cc3)nn2)c1` [KUC104114N], for which the “% NleB1 inhibition (µM compound) / 10” value amounted to 31.8%, the “% NleB1 inhibition (µM compound) / 20” value worked out at 42.3%, the “% NleB1 inhibition (µM compound) / 40” value is listed as 57.2% and the “% NleB1 inhibition (µM compound) / 80” value turned out to be 76.5%. Further, the “% NleB1 inhibition (µM compound) / 160” value is reported as 92.0%.
Consider `COc1ccc2cc([C@H](C)C(=O)OCc3cn(CC(=O)c4ccc(O)cc4)nn3)ccc2c1` [KUC104115N], for which the “% NleB1 inhibition (µM compound) / 10” value is reported as 40.2%, the “% NleB1 inhibition (µM compound) / 20” value is listed as 44.0%, the “% NleB1 inhibition (µM compound) / 40” value is recorded as 48.2% and the “% NleB1 inhibition (µM compound) / 80” value came out at 61.4%. Moreover, the “% NleB1 inhibition (µM compound) / 160” value is 78.6%.
In the case of `CC1C(=O)N(Cc2cn(CCC3OCCCO3)nn2)CCS(=O)(=O)N1Cc1ccc(-c2cccc(N(C)C)c2)cc1` (centres unmarked) [KUC104889N], the “% NleB1 inhibition (µM compound) / 10” value came out at 26.6%, the “% NleB1 inhibition (µM compound) / 20” value is listed as 28.9%, the “% NleB1 inhibition (µM compound) / 40” value was 29.5% and the “% NleB1 inhibition (µM compound) / 80” value came out at 35.9%. The “% NleB1 inhibition (µM compound) / 160” value was found to be 44.5%.
For the compound `CCCCCC(=O)N1C[C@H](n2cc(COC(=O)c3ccccc3)nn2)[C@@H](O)C[C@@H]1c1ccc(Cl)cc1` [KUC105040N], the “% NleB1 inhibition (µM compound) / 10” value was 9.1%, the “% NleB1 inhibition (µM compound) / 20” value was found to be 14.5%, the “% NleB1 inhibition (µM compound) / 40” value came out at 18.9% and the “% NleB1 inhibition (µM compound) / 80” value was found to be 40.4%. For the same compound, the “% NleB1 inhibition (µM compound) / 160” value was found to be 50.7%.
The corresponding values for `COCOCCn1cc(CN2CCS(=O)(=O)N(Cc3ccc(-c4ccc(OC)nc4)cc3)C(C(C)C)C2=O)nn1` (centres unmarked) [KUC105133N] are 30.4%, 40.4%, 45.5%, 62.2% and 75.8%.
Take `COc1ccc(-c2ccc(CN3C(C(C)C)C(=O)N(Cc4cn(CCC5OCCO5)nn4)CCS3(=O)=O)cc2)cn1` (centres unmarked) [KUC105137N]: the “% NleB1 inhibition (µM compound) / 10” value was found to be 13.7%, the “% NleB1 inhibition (µM compound) / 20” value stood at 25.7%, the “% NleB1 inhibition (µM compound) / 40” value is on record as 41.5% and the “% NleB1 inhibition (µM compound) / 80” value amounted to 64.5%. Besides, the “% NleB1 inhibition (µM compound) / 160” value is 79.7%.
On to `COCOCCn1cc(CN2CCS(=O)(=O)N(Cc3ccc(-c4ccc(F)nc4)cc3)C(CC(C)C)C2=O)nn1` (centres unmarked) [KUC105149N], for which the “% NleB1 inhibition (µM compound) / 10” value worked out at 34.4%, the “% NleB1 inhibition (µM compound) / 20” value was 38.8%, the “% NleB1 inhibition (µM compound) / 40” value is 42.6% and the “% NleB1 inhibition (µM compound) / 80” value is 55.9%. In addition, the “% NleB1 inhibition (µM compound) / 160” value was 69.5%.
Turning to `CC(C)CC1C(=O)N(Cc2cn(CCC3OCCCO3)nn2)CCS(=O)(=O)N1Cc1ccc(-c2ccc(F)nc2)cc1` (centres unmarked) [KUC105151N], the “% NleB1 inhibition (µM compound) / 10” value is reported as 0.6%, the “% NleB1 inhibition (µM compound) / 20” value stood at 15.1%, the “% NleB1 inhibition (µM compound) / 40” value is listed as 31.9% and the “% NleB1 inhibition (µM compound) / 80” value was determined as 50.8%. For the same compound, the “% NleB1 inhibition (µM compound) / 160” value was 53.0%.
In the case of `CCCCN1CC(COCc2ccccc2)Oc2cccc(Oc3ccc(F)cc3OC)c2S1(=O)=O` (centres unmarked) [KUC106008N], the “% NleB1 inhibition (µM compound) / 10” value is 21.4%, the “% NleB1 inhibition (µM compound) / 20” value was found to be 22.4%, the “% NleB1 inhibition (µM compound) / 40” value came to 20.7% and the “% NleB1 inhibition (µM compound) / 80” value is given as 31.6%. For the same compound, the “% NleB1 inhibition (µM compound) / 160” value is recorded as 55.9%.
In the case of `O=C(c1ccc([N+](=O)[O-])cc1)N1[C@H](COCc2ccccc2)C=CS1(=O)=O` [KUC107029N], the “% NleB1 inhibition (µM compound) / 10” value was determined as 30.6%, the “% NleB1 inhibition (µM compound) / 20” value was 41.5%, the “% NleB1 inhibition (µM compound) / 40” value came out at 43.4% and the “% NleB1 inhibition (µM compound) / 80” value turned out to be 48.6%. Further, the “% NleB1 inhibition (µM compound) / 160” value was determined as 43.4%.
Consider `CN(C)CCN1CCN(C2CN(Cc3cn(Cc4ccc(F)cc4)nn3)S(=O)(=O)C2)CC1` (centres unmarked) [KUC108117N], for which the “% NleB1 inhibition (µM compound) / 10” value was determined as 5.6%, the “% NleB1 inhibition (µM compound) / 20” value is 23.7%, the “% NleB1 inhibition (µM compound) / 40” value worked out at 25.1% and the “% NleB1 inhibition (µM compound) / 80” value is listed as 21.8%. In addition, the “% NleB1 inhibition (µM compound) / 160” value worked out at 21.8%.
For the compound `CN1CCC(N2CCN(C3CN(Cc4cn(Cc5cccc(Cl)c5)nn4)S(=O)(=O)C3)CC2)CC1` (centres unmarked) [KUC108133N], the “% NleB1 inhibition (µM compound) / 10” value stood at 4.1%, the “% NleB1 inhibition (µM compound) / 20” value turned out to be 18.2%, the “% NleB1 inhibition (µM compound) / 40” value is given as 22.3% and the “% NleB1 inhibition (µM compound) / 80” value is given as 18.0%. Moreover, the “% NleB1 inhibition (µM compound) / 160” value is reported as 18.2%.
With `O=S1(=O)CC(N2CCN(Cc3ccccc3F)CC2)CN1Cc1cn(Cc2cccc(Cl)c2)nn1` (centres unmarked) [KUC108236N], the “% NleB1 inhibition (µM compound) / 10” value is 13.5%, the “% NleB1 inhibition (µM compound) / 20” value is 26.7%, the “% NleB1 inhibition (µM compound) / 40” value amounted to 13.1% and the “% NleB1 inhibition (µM compound) / 80” value was 12.7%. Also, the “% NleB1 inhibition (µM compound) / 160” value is given as 18.4%.
For `C[C@H](c1ccccc1)N1C[C@@H](COCc2ccccc2)Oc2cc(N3CC[C@@H](O)C3)ccc2S1(=O)=O` [KUC108511N], the “% NleB1 inhibition (µM compound) / 10” value is given as 33.8%, the “% NleB1 inhibition (µM compound) / 20” value was 33.0%, the “% NleB1 inhibition (µM compound) / 40” value is on record as 29.9% and the “% NleB1 inhibition (µM compound) / 80” value was found to be 49.8%. In addition, the “% NleB1 inhibition (µM compound) / 160” value was found to be 63.7%.
Taken in the same sequence, the figures for `Cc1ccc2c(c1)C1CS(=O)(=O)N(C3CCCC3)C(=O)N1C2` (centres unmarked) [KUC109525N] were 26.3%, 31.5%, 20.9%, 19.5% and 29.3%.
In the case of `COC(=O)[C@H](C(C)C)N1Cc2nnn(Cc3ccccc3)c2-c2ccccc2S1(=O)=O` [KUC110604N], the “% NleB1 inhibition (µM compound) / 10” value worked out at 4.8%, the “% NleB1 inhibition (µM compound) / 20” value is 15.1%, the “% NleB1 inhibition (µM compound) / 40” value was 17.9% and the “% NleB1 inhibition (µM compound) / 80” value came out at 21.1%. Further, the “% NleB1 inhibition (µM compound) / 160” value came to 17.9%.
`C[C@H]1CC[C@]2(CCC(=O)N2CCCOC(=O)c2ccccc2)CC1` [KUC110967N]: the “% NleB1 inhibition (µM compound) / 10” value is on record as 45.2%, the “% NleB1 inhibition (µM compound) / 20” value came out at 53.8%, the “% NleB1 inhibition (µM compound) / 40” value was 62.0% and the “% NleB1 inhibition (µM compound) / 80” value stood at 71.4%. The “% NleB1 inhibition (µM compound) / 160” value is given as 78.5%.
`Cc1ccc([C@H]2CC[C@]3(CCC(=O)N3CCOC(=O)Nc3cccc(C#N)c3)CC2)cc1` [KUC111012N]: the “% NleB1 inhibition (µM compound) / 10” value is given as 17.3%, the “% NleB1 inhibition (µM compound) / 20” value is on record as 25.1%, the “% NleB1 inhibition (µM compound) / 40” value is given as 22.4% and the “% NleB1 inhibition (µM compound) / 80” value worked out at 20.7%. In addition, the “% NleB1 inhibition (µM compound) / 160” value is recorded as 20.5%.
Regarding `C[C@@H]1CCCN1c1ccc2c(c1)O[C@@H]1CCN(C1)S2(=O)=O` [KUC111139N], the “% NleB1 inhibition (µM compound) / 10” value amounted to 32.7%, the “% NleB1 inhibition (µM compound) / 20” value is recorded as 34.1%, the “% NleB1 inhibition (µM compound) / 40” value stood at 35.7% and the “% NleB1 inhibition (µM compound) / 80” value amounted to 38.7%. Also, the “% NleB1 inhibition (µM compound) / 160” value is 40.7%.
Taken in the same sequence, the figures for `O=C(c1ccc(F)cc1)N1CCCC2(CC(c3cccc(Cl)c3)=CO2)C1` (centres unmarked) [KUC111570N] were 3.2%, 3.8%, 5.2%, 24.2% and 42.6%.
Turning to `CCC[C@H]1[C@@H](OC(=O)NCc2ccc(OC)cc2)CC[C@@]23CCCN2C(=O)CCC[C@@H]13` [KUC112136N], the “% NleB1 inhibition (µM compound) / 10” value is on record as 15.7%, the “% NleB1 inhibition (µM compound) / 20” value is 22.0%, the “% NleB1 inhibition (µM compound) / 40” value was 20.8% and the “% NleB1 inhibition (µM compound) / 80” value came out at 28.5%. Besides, the “% NleB1 inhibition (µM compound) / 160” value turned out to be 30.5%.
`O=C(Oc1ccc([N+](=O)[O-])cc1)O[C@H]1CC[C@@]23CCCN2C(=O)CCC[C@H]3[C@H]1Cc1ccccc1` [KUC112275N]: the “% NleB1 inhibition (µM compound) / 10” value amounted to 2.6%, the “% NleB1 inhibition (µM compound) / 20” value worked out at 5.6%, the “% NleB1 inhibition (µM compound) / 40” value is reported as 11.0% and the “% NleB1 inhibition (µM compound) / 80” value is given as 24.2%. For the same compound, the “% NleB1 inhibition (µM compound) / 160” value is given as 34.9%.
